Where a name gives a salt, the structure may show the parent alone. Read-outs that look alike come from different tables or passages of the source.
Assays:
[1] = target: T1, Thymidine phosphorylase (TP) (Escherichia coli, UniProt P07650); experiment: Thymidine phosphorylase inhibition assay (spectrophotometric, 290 nm); type: biochemical, E. coli; conditions: for IC50 / TP inhibitory activity (in words) / Thymidine Phosphorylase Inhibitory Activity % Inhibition: E. coli TP; for IC50: n = 3, NA: not active, read-out: Thymidine Phosphorylase Inhibitory Activity IC50 ± SEM; for inhibition at 500 µM / Thymidine Phosphorylase Inhibitory Activity % Inhibition: test compound 10 µL of 0.5 mM in 200 µL, thymidine substrate, 30 °C, pH 7.0; for TP inhibitory activity (in words): inactive = less than 50% inhibition
T1 construct: purchased Sigma Aldrich, USA
Protocol: Thymidine phosphorylase (source: E. coli, EC Number 2.4.2.4), thymidine (substrate), and potassium phosphate monobasic (as buffer) were acquired from Sigma Aldrich, USA. […] Dimethylsulfoxide (DMSO), used as a solvent, was obtained from Fisher Scientific, Schwerte, Germany.
Reaction was performed in 96-well plates and in triplicates. The 200 µL reaction mixture was comprised of 10 µL of the test compound (0.5 mM; dissolved in DMSO), 150 µL of potassium phosphate buffer (pH 7.0, 50 mM), and 20 µL of TP enzyme (0.058 unit/well). The 96-well plate containing all these reagents was then incubated at 30 °C for 10 min.
SoftMax Pro 4.8 software (Molecular Devices, San Jose, CA, USA) was used to analyse the results.
EZ-FIT, enzyme kinetics software (Perrella Scientific, Inc., Amherst, GA, USA) was used to calculate the IC50 values. In order to analyse the kinetic parameter, Grafit version 7.0 (Erithacus Software Ltd., Horley, UK) was used.

MTT cytotoxicity assay = type: cell-based; conditions: 3T3 mouse fibroblast cells, 48 h, test compounds 1 to 30 µM, NC: non-cytotoxic; for viability at 48 h: read-out: Cytotoxicity Studies Cell Viability (%)
Protocol: Cytotoxicity of active compounds were evaluated employing a standard MTT calorimetric assay. Mouse fibroblast (3T3 cell line) acquired from American Type Culture Collection (ATCC), Virginia, USA, was cultured in DMEM (Dulbecco’s modified eagle medium). In total, 5% FBS (fetal bovine serum), penicillin (100 IU/mL), and streptomycin ([…]) were then added to the medium in […] flasks, and kept in a CO2 incubator at 37 °C. The harvested cell was then diluted with a specific medium. Haemocytometer was used for the quantification of cells. After that, the culture of cell having concentration of 5x104 (cells/mL) was prepared, inoculated into 96-well plates (100 µL/well), and then incubated overnight. After incubation, the old medium was removed, and fresh medium (200 µL) was added. Then different concentrations of test compounds (ranging from 1 to 30 µM) were added. After incubation of 48 h, each well received 200 µL of MTT dye (0.5 mg/mL), and further incubated for a duration of 4 h. After 4 h, 100 µL of DMSO was introduced into each well of the 96-well plate. The reduction of MTT to formazan was measured by recording absorbance at 540 nm with the help of a microplate reader (SpectraMax 384, Molecular Devices, San Jose, CA, USA).

[2] = pH 7, E. coli TP, read-out: Thymidine Phosphorylase Inhibitory Activity % Inhibition

T1 sequence (P07650 whole entry): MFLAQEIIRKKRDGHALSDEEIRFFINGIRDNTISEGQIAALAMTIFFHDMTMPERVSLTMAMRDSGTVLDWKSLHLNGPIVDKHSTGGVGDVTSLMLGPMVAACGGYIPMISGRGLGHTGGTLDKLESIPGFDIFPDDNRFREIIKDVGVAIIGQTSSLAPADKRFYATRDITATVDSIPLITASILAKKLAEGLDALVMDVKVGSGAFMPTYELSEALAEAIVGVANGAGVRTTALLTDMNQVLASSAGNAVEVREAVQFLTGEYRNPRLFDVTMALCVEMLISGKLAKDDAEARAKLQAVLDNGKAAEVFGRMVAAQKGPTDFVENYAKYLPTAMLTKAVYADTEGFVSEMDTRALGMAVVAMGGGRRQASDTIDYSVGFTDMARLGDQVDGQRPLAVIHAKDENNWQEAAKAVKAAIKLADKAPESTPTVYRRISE

| SMILES | IC50 [1] [µM] | inhibition at 500 µM [1, 2] [%] | viability at 48 h (MTT cytotoxicity assay) [%] | other results |
| --- | --- | --- | --- | --- |
| COC(=O)C1=C(C)NC(=O)NC1c1ccc(N(C)C)cc1 (centres unmarked) [Compound 26, Methyl 4-(4-(dimethylamino)phenyl)-6-methyl-2-oxo-1,2,3,4-tetrahydropyrimidine-5-carboxylate] | 350 ± 3.7 | 92.3 | 57 |  |
| COC(=O)C1=C(C)NC(=O)NC1c1ccccc1F (centres unmarked) [Compound 35, Methyl 4-(2-fluorophenyl)-6-methyl-2-oxo-1,2,3,4-tetrahydropyrimidine-5-carboxylate] |  | 9.6 |  | TP inhibitory activity (in words) [1]: activity was lost |
| COC(=O)C1=C(C)NC(=O)NC1c1ccc(C)s1 (centres unmarked) [Compound 32, Methyl 6-methyl-4-(5-methylthiophen-2-yl)-2-oxo-1,2,3,4-tetrahydropyrimidine-5-carboxylate] | 485.7 ± 1.5 | 58.3 | 85 |  |
| COC(=O)C1=C(C)NC(=O)NC1c1ccccc1OC (centres unmarked) [Compound 7, Methyl 4-(2-methoxyphenyl)-6-methyl-2-oxo-1,2,3,4-tetrahydropyrimidine-5-carboxylate] |  | -19.3 |  |  |
| CCOc1ccc(C2NC(=O)NC(C)=C2C(=O)OC)cc1 (centres unmarked) [Compound 2, Methyl 4-(4-ethoxyphenyl)-6-methyl-2-oxo-1,2,3,4-tetrahydropyrimidine-5-carboxylate] | 389 ± 6.2 | 78.2 | 67 |  |
| COC(=O)C1=C(C)NC(=O)NC1c1cc(OC)c(O)c(OC)c1 (centres unmarked) [Compound 30, Methyl 4-(4-hydroxy-3,5-dimethoxyphenyl)-6-methyl-2-oxo-1,2,3,4-tetrahydropyrimidine-5-carboxylate] | 396.7 ± 1.5 | 69.6 | 75 |  |
| COC(=O)C1=C(C)NC(=O)NC1c1ccsc1 (centres unmarked) [Compound 24, Methyl 6-methyl-2-oxo-4-(thiophen-3-yl)-1,2,3,4-tetrahydropyrimidine-5-carboxylate] | 350.6 ± 0.6 | 79.6 | 82 |  |
| COC(=O)C1=C(C)NC(=O)NC1c1ccc(O)c(Cl)c1 (centres unmarked) [Compound 28, Methyl 4-(3-chloro-4-hydroxyphenyl)-6-methyl-2-oxo-1,2,3,4-tetrahydropyrimidine-5-carboxylate] | 404.6 ± 1 | 67.5 | 95 |  |
| CCC1NC(=O)NC(C)=C1C(=O)OC (centres unmarked) [Compound 4, Methyl 4-ethyl-6-methyl-2-oxo-1,2,3,4-tetrahydropyrimidine-5-carboxylate] |  | 46.8 |  |  |
| COC(=O)C1=C(C)NC(=O)NC1c1ccc(OC(C)=O)c(OC)c1 (centres unmarked) [Compound 29, Methyl 4-(4-acetoxy-3-methoxyphenyl)-6-methyl-2-oxo-1,2,3,4-tetrahydropyrimidine-5-carboxylate] | 400.5 ± 0.6 | 76 | 80 |  |
| COC(=O)C1=C(C)NC(=O)NC1c1cccs1 (centres unmarked) [Compound 27, Methyl 6-methyl-2-oxo-4-(thiophen-2-yl)-1,2,3,4-tetrahydropyrimidine-5-carboxylate] |  | 47.1 |  |  |
| CCCCC1NC(=O)NC(C)=C1C(=O)OC (centres unmarked) [Compound 10, Methyl 4-butyl-6-methyl-2-oxo-1,2,3,4-tetrahydropyrimidine-5-carboxylate] | 389 ± 0.6 | 92.7 | 66 |  |
| COC(=O)C1=C(C)NC(=O)NC1c1ccc(Cl)cc1Cl (centres unmarked) [Compound 39, Methyl 4-(2,4-dichlorophenyl)-6-methyl-2-oxo-1,2,3,4-tetrahydropyrimidine-5-carboxylate] |  | -1.8 |  | TP inhibitory activity (in words) [1]: inactive |
| COC(=O)C1=C(C)NC(=O)NC1c1ccc(OC)c(OC)c1 (centres unmarked) [Compound 25, Methyl 4-(3,4-dimethoxyphenyl)-6-methyl-2-oxo-1,2,3,4-tetrahydropyrimidine-5-carboxylate] | 424.1 ± 0.9 | 59 | 99 |  |
| COC(=O)C1=C(C)NC(=O)NC1c1ccc(O)cc1 (centres unmarked) [Compound 13, Methyl 4-(4-hydroxyphenyl)-6-methyl-2-oxo-1,2,3,4-tetrahydropyrimidine-5-carboxylate] | 448.9 ± 4.1 | 56.2 | 72 |  |
| COC(=O)C1=C(C)NC(=O)NC1c1ccccc1OCc1ccccc1 (centres unmarked) [Compound 36, Methyl 4-(2-(benzyloxy)phenyl)-6-methyl-2-oxo-1,2,3,4-tetrahydropyrimidine-5-carboxylate] |  | 5.3 |  |  |
| C[C@@H]1C[C@@H]([C@H](O)CC2CC(=O)NC(=O)C2)C(=O)[C@@H](C)C1 [Cycloheximide, reference compound] |  |  | 30 | IC50 at 48 h (MTT cytotoxicity assay; read-out: Cytotoxicity Studies IC50 ± SD): 0.8 ± 0.2 µM |
| COC(=O)C1=C(C)NC(=O)NC1c1ccccc1Cl (centres unmarked) [Compound 6, Methyl 4-(2-chlorophenyl)-6-methyl-2-oxo-1,2,3,4-tetrahydropyrimidine-5-carboxylate] |  | -65.3 |  | TP inhibitory activity (in words) [1]: inactive |
| COC(=O)C1=C(C)NC(=O)NC1c1ccc(F)c(OC)c1 (centres unmarked) [Compound 16, Methyl 4-(4-fluoro-3-methoxyphenyl)-6-methyl-2-oxo-1,2,3,4-tetrahydropyrimidine-5-carboxylate] |  | 47.8 |  |  |
| N=C1CCCN1Cc1[nH]c(=O)[nH]c(=O)c1Cl [Tipiracil-HCl, reference compound] |  |  |  | inhibition at 500 µM ([1]; pH 7, read-out: Thymidine Phosphorylase Inhibitory Activity % Inhibition, E. coli TP): 92% |
| COC(=O)C1=C(C)NC(=O)NC1c1c(Cl)cccc1Cl (centres unmarked) [Compound 18, Methyl 4-(2,6-dichlorophenyl)-6-methyl-2-oxo-1,2,3,4-tetrahydropyrimidine-5-carboxylate] |  | -15.4 |  | TP inhibitory activity (in words) [1]: inactive |
| COC(=O)C1=C(C)NC(=O)NC1c1ccc(OC)c(OCc2ccccc2)c1 (centres unmarked) [Compound 23, Methyl 4-(3-(benzyloxy)-4-methoxyphenyl)-6-methyl-2-oxo-1,2,3,4-tetrahydropyrimidine-5-carboxylate] |  | 7.5 |  |  |
| COC(=O)C1=C(C)NC(=O)NC1c1ccc2ccccc2c1 (centres unmarked) [Compound 8, Methyl 6-methyl-4-(naphthalen-2-yl)-2-oxo-1,2,3,4-tetrahydropyrimidine-5-carboxylate] |  |  |  | Thymidine Phosphorylase Inhibitory Activity % Inhibition [1]: −10.3% |
| COC(=O)C1=C(C)NC(=O)NC1c1cc(OC)ccc1OC (centres unmarked) [Compound 17, Methyl 4-(2,5-dimethoxyphenyl)-6-methyl-2-oxo-1,2,3,4-tetrahydropyrimidine-5-carboxylate] |  | 46.5 |  |  |
| COC(=O)C1=C(C)NC(=O)NC1c1cccc(O)c1 (centres unmarked) [Compound 15, Methyl 4-(3-hydroxyphenyl)-6-methyl-2-oxo-1,2,3,4-tetrahydropyrimidine-5-carboxylate] |  | 38.9 |  |  |
| COC(=O)C1=C(C)NC(=O)NC1c1cccc(OCc2ccccc2)c1 (centres unmarked) [Compound 31, Methyl 4-(3-(benzyloxy)phenyl)-6-methyl-2-oxo-1,2,3,4-tetrahydropyrimidine-5-carboxylate] |  | -41.9 |  |  |
| COC(=O)C1=C(C)NC(=O)NC1c1ccc2ccccc2c1 (centres unmarked) [Compound 3, Methyl 6-methyl-4-(naphthalen-2-yl)-2-oxo-1,2,3,4-tetrahydropyrimidine-5-carboxylate] |  |  |  | Thymidine Phosphorylase Inhibitory Activity % Inhibition [1]: 38.1% |
| COC(=O)C1=C(C)NC(=O)NC1c1ccc(C(C)C)cc1 (centres unmarked) [Compound 19, Methyl 4-(4-isopropylphenyl)-6-methyl-2-oxo-1,2,3,4-tetrahydropyrimidine-5-carboxylate] |  | -18.5 |  |  |

Reference: publication PMC10143232, “Dihydropyrimidone Derivatives as Thymidine Phosphorylase Inhibitors: Inhibition Kinetics, Cytotoxicity, and Molecular Docking” (Molecules, 2023)
